Measurements reported in patent US6562371B1, “Liposomes” (Terumo Kabushiki Kaisha, priority 1998, dated 2003).

System: Anti-Thy-1 antibody nephritis rats
Assay: Pharmacological effect: total protein content in urine
Assay type: in vivo, rat
Details: administered once i.v. on the fifth day after anti-Thy-1 antibody, urine collected on the tenth day
Procedure: Anti-Thy-1 antibody nephritis rats were prepared by intravenously administering an anti-Thy-1 antibody solution through the caudal vein of each CD (SD) male rat. On the fifth day after administration of the anti-Thy-1 antibody, the liposome dispersion liquid obtained in Preparation Example 15 (1 mg as prednisolone phosphate sodium) was administered by intravenous injection. On the tenth day after administration of the anti-Thy-1 antibody, urine was collected to measure the total protein content.
For the sake of comparison, the preparation of Comparative Example 1 (a liposome dispersion liquid having no included drug) or physiological saline was administered by the same method, and urine was collected on the tenth day after administration of the anti-Thy-1 antibody to measure the total protein content.
Also, a prednisolone phosphate sodium solution (1 mg as prednisolone phosphate sodium) which was not made into liposomes was administered once on the fifth day after administration of the anti-Thy-1 antibody, or five times (once a day for 5 days) started on the fifth day after administration of the anti-Thy-1 antibody, and urine was collected on the tenth day after administration of the anti-Thy-1 antibody to measure the total protein content.
Urine was also collected from un-treated normal rat to measure the total protein content.

Substance: prednisolone phosphate sodium
- effect on excretion of protein into urine (total protein content): no effect was found
